Experimental data from patent publication USRE47689E1, “Compounds for treating spinal muscular atrophy” (PTC Therapeutics, Inc., priority 2011, dated 2019).
Like-named read-outs stand apart in the source and are kept apart here.

Assays:
Smn protein = Smn protein assay in cultured cells (SMN HTRF); format: cell-based, human; settings: for EC1.5x (concentration giving 1.5-fold Smn protein increase): read-out: EC1.5x for Smn protein expression
Method in brief: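 Lysates in RIPA with protease inhibitors are incubated overnight at room temperature with HTRF anti-SMN antibodies. EC1.5x is derived from fold increase in ΔF over vehicle.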

[1] = test system: SMN2 minigene (full length SMN2 minigene mRNA containing SMN2 exon 7); assay: SMN2 minigene mRNA splicing RT-qPCR assay in cultured cells; format: cell-based, human; settings: Homo sapiens, HEK293-H, read-out: EC1.5x for production of full length SMN2 mRNA
Method in brief: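 HEK293H cells stably carrying the SMN2-A minigene treated 24 h at 37° C with compound (DMSO, 200× stock), then lysed. Multiplex RT-qPCR (SMN primers 0.4 μM final; 40 cycles) measures full-length exon 7-containing minigene mRNA, normalized to GAPDH and to vehicle; EC1.5x derived and binned by stars.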

[2] = SMA patient fibroblast cells, 48 hours, 7-point concentration data, fold increase relative to vehicle control (SMN HTRF)
[3] = HEK293H cells stably transfected with SMN2-A minigene, 24 hours, 7-point concentration curve, 1.5-fold relative to vehicle-treated cells
[4] = SMA Type 1 patient fibroblast cells (GM03813), 48 hours, 7-point concentration curve, SMN HTRF, concentration producing 1.5 times Smn protein vs DMSO vehicle control

| melting point [°C] | SMILES | maximum fold (Fold) increase of Smn protein (Smn protein; [2]) | EC (1.5-fold) [1, 3] [µM] | EC1.5x (concentration giving 1.5-fold Smn protein increase) (Smn protein; [4]) [nM] | EC (1.5-fold) ([1]; 24 h) [µM] | maximum fold (Fold) increase of Smn protein (Smn protein) | EC1.5x (concentration giving 1.5-fold Smn protein increase) (Smn protein) [nM] |
| --- | --- | --- | --- | --- | --- | --- | --- |
| 243 to 245 | Cc1cccc2oc(-c3cc4ccc(N5C[C@@H](C)N[C@@H](C)C5)cc4oc3=O)nc12 [Compound 31, 7-[(3R,5S)-3,5-dimethylpiperazin-1-yl]-3-(4-methyl-1,3-benzoxazol-2-yl)-2H-chromen-2-one] | * (maximum fold increase of ≤1.2) | 3 to 30 | – | – | – | – |
| 229 to 231 | CN1CCN(c2ccc3cc(-c4nc5c(Cl)cccc5o4)c(=O)oc3c2)CC1 [Cpd 68, 3-(4-chloro-1,3-benzoxazol-2-yl)-7-(4-methylpiperazin-1-yl)-2H-chromen-2-one] | ** (fold increase between >1.2 and ≤1.35) | 1 to 3 | – | – | – | – |
| 217 to 220 | CN1CCN(c2ccc3cc(-c4cn5cccc(Br)c5n4)c(=O)oc3c2)CC1 [Compound 245, 3-(8-bromoimidazo[1,2-a]pyridin-2-yl)-7-(4-methylpiperazin-1-yl)-2H-chromen-2-one] | ** (fold increase between >1.2 and ≤1.35) | 0.1 to 0.3 | – | – | – | – |
| 278 to 283 | O=c1oc2cc(N3CCNCC3)cc(F)c2cc1-c1cn2ccsc2n1 [Compound 311, 5-fluoro-3-(imidazo[2,1-b][1,3]thiazol-6-yl)-7-(piperazin-1-yl)-2H-chromen-2-one] | *** (fold increase between >1.35 and ≤1.5) | < 0.1 | 1000 to 3000 | – | – | – |
| 218 to 220 | O=c1oc2cc(N3CCNCC3)ccc2cc1-c1ccc2c(c1)OCO2 [Compound 486, 3-(1,3-benzodioxol-5-yl)-7-(piperazin-1-yl)-2H-chromen-2-one] | * (maximum fold increase of ≤1.2) | 3 to 30 | – | – | – | – |
| 258 to 265 | Cc1ccn2cc(-c3cc4ccc(N5CCN6CCC[C@H]6C5)cc4oc3=O)nc2c1 [Compound 534, 7-[(8aS)-hexahydropyrrolo[1,2-a]pyrazin-2(1H)-yl]-3-(7-methylimidazo[1,2-a]pyridin-2-yl)-2H-chromen-2-one] | *** (fold increase between >1.35 and ≤1.5) | 1 to 3 | – | – | – | – |
| 217 to 221 | Cc1cn2cc(-c3cc4ccc(CCNC(CO)CO)cc4oc3=O)nc2c(C)n1 [Compound 873, 7-{2-[(1,3-dihydroxypropan-2-yl)amino]ethyl}-3-(6,8-dimethylimidazo[1,2-a]pyrazin-2-yl)-2H-chromen-2-one] | **** (fold increase between >1.5 and ≤1.65) | < 0.1 | 300 to 1000 | – | – | – |
| 242 to 255 | CCN1CCN(c2ccc3cc(-c4cn5cc(C)ncc5n4)c(=O)oc3c2)CC1 [Compound 622, 7-(4-ethylpiperazin-1-yl)-3-(6-methylimidazo[1,2-a]pyrazin-2-yl)-2H-chromen-2-one] | **** (fold increase between >1.5 and ≤1.65) | < 0.1 | < 300 | – | – | – |

| SMILES | melting point [°C] | maximum fold (Fold) increase of Smn protein (Smn protein; [2]) | EC (1.5-fold) [1, 3] [µM] | EC1.5x (concentration giving 1.5-fold Smn protein increase) (Smn protein; [4]) [nM] | EC (1.5-fold) ([1]; 24 h) [µM] | maximum fold (Fold) increase of Smn protein (Smn protein) | EC1.5x (concentration giving 1.5-fold Smn protein increase) (Smn protein) [nM] |
| --- | --- | --- | --- | --- | --- | --- | --- |
| Cc1ccn2cc(-c3cc4ccc(N5CCN6CCC5CC6)cc4oc3=O)nc2c1 [Compound 521, 7-(1,4-diazabicyclo[3.2.2]non-4-yl)-3-(7-methylimidazo[1,2-a]pyridin-2-yl)-2H-chromen-2-one] | 216 to 223 | ** (fold increase between >1.2 and ≤1.35) | – | – | 0.3 to 1 | – | – |
| O=c1oc2cc(N3CCNCC3)cc(F)c2cc1-c1ccccn1 [Compound 161, 5-fluoro-7-(piperazin-1-yl)-3-(pyridin-2-yl)-2H-chromen-2-one] | 221 to 225 | – | – | – | 1 to 3 | *** (key: *: maximum fold increase of ≤1.2; **: fold increase between >1.2 and ≤1.35; ***: fold increase between >1.35 and ≤1.5; ****: fold increase between >1.5 and ≤1.65; *****: fold increase >1.65) | 3000 to 10000 |
